Measurements published in patent US20230233469A1, “SEMI-SOLID FORMULATION FOR VOLUNTARY ORAL ADMINISTRATION OF BIOACTIVE COMPOUNDS TO RODENTS” (priority 2020, published 2023).

Conditions: 80 mg/Kg body weight in semi-solid pill
Excerpt: Data are presented as mean±S.E.M. (n=6-8 experimental group).

Compound: CC(=O)CC(c1ccccc1)c1c(O)c2ccccc2oc1=O (centres unmarked) [warfarin]
- day of euthanasia for critical signs of illness (e.g. bleeding): 8 days
- day post-administration from which poor health status and evident signs of toxicity appeared: 4 days
